Assay results published in patent US12435044B2, “Pyridazinone herbicides and pyridazinone intermediates used to prepare a herbicide” (FMC Corporation, priority 2018, dated 2025).

Assays:
Test in all cases: Test E pre-/postemergence greenhouse test
Format in all cases: in vivo
[1] = test system: crabgrass, large (Digitaria sanguinalis); settings: Preemergence
Description: (§1) Seeds of plant species selected from corn (Zea mays), soybean (Glycine max), velvetleaf (Abutilon theophrasti), lambsquarters (Chenopodium album), poinsettia, wild (Euphorbia heterophylla), pigweed, palmer (Amaranthus palmeri), waterhemp (common waterhemp, Amaranthus rudis), surinam grass (Brachiaria decumbens), crabgrass, large (Digitaria sanguinalis), crabgrass, Brazil (Digitaria horizontalis), panicum, fall (Panicum dichotomiflorum), foxtail, giant (Setaria faberii), foxtail, green (Setaria viridis), goosegrass (Eleusine indica), johnsongrass (Sorghum halepense), ragweed (common ragweed, Ambrosia elatior), barnyardgrass (Echinochloa crus-galli), sandbur (southern sandbur, Cenchrus echinatus), arrowleaf sida (Sida rhombifolia), ryegrass, Italian (Lolium multiflorum), dayflower, VA (Virginia (VA) dayflower, Commelina virginica), field bindweed (Convolvulus arvensis), morningglory (Ipomoea coccinea), horseweed (Conyza canadensis), kochia (Kochia scoparia), nutsedge, yellow (Cyperus esculentus) and hairy beggarticks (Bidenspilosa), were planted into a silt loam soil and treated preemergence with test chemicals formulated in a non-phytotoxic solvent mixture which included a surfactant.
(§2) At the same time, plants selected from these crop and weed species and also waterhemp_RES1, (ALS & Triazine resistant common waterhemp, Amaranthus rudis), and waterhemp_RES2, (ALS & HPPD resistant common waterhemp, Amaranthus rudis) were planted in pots containing Redi-Earth® planting medium (Scotts Company, 14111 Scottslawn Road, Marysville, Ohio 43041) comprising spaghnum peat moss, vermiculite, wetting agent and starter nutrients were treated with postemergence applications of test chemicals formulated in the same manner. Plants ranged in height from 2 to 18 cm for postemergence treatments (1- to 4-leaf stage). Treated plants and controls were maintained in a greenhouse for 14 to 21 d, after which time all species were compared to controls and visually evaluated. Plant response ratings, summarized in Table E, are based on a scale of 0 to 100 where 0 is no effect and 100 is complete control. A dash (-) response means no test result.

corn (Zea mays) = test system: corn (Zea mays)
Description: as §1, §2

soybean (Glycine max) = test system: soybean (Glycine max)
Description: as §1, §2

[2] = test system: velvetleaf (Abutilon theophrasti); settings: Preemergence
Description: as §1, §2

[3] = test system: waterhemp (common waterhemp, Amaranthus rudis)
Description: as §1, §2

[4] = test system: foxtail, giant (Setaria faberii); settings: Preemergence
Description: as §1, §2

[5] = test system: barnyardgrass (Echinochloa crus-galli); settings: Preemergence
Description: as §1, §2

[6] = test system: ragweed (common ragweed, Ambrosia elatior)
Description: as §1, §2

[7] = test system: panicum, fall (Panicum dichotomiflorum)
Description: as §1, §2

[8] = test system: horseweed (Conyza canadensis); settings: Postemergence
Description: as §1, §2

[9] = test system: pigweed, palmer (Amaranthus palmeri)
Description: as §1, §2

[10] = test system: surinam grass (Brachiaria decumbens); settings: Preemergence
Description: as §1, §2

Cc1ccc2ccc(C)c(-c3c(O)c(Cl)nn(C)c3=O)c2c1 [Cpd. No. 20, 6-chloro-4-(2,7-dimethyl-1-naphthalenyl)-5-hydroxy-2-methyl-3(2H)-pyridazinone]
65: Plant response rating, Crabgrass, Large ([1]; 16 g ai/ha) | Plant response rating, Crabgrass, Large ([1]; 31 g ai/ha) | Plant response rating, Pigweed, Palmer ([9]; Postemergence, 31 g ai/ha)
20: Plant response rating, Corn (corn (Zea mays); Postemergence, 31 g ai/ha) | Plant response rating, Pigweed, Palmer ([9]; Preemergence, 16 g ai/ha)
30: Plant response rating, Soybean (soybean (Glycine max); Postemergence, 62 g ai/ha)
15: Plant response rating, Soybean (soybean (Glycine max); Postemergence, 31 g ai/ha) | Plant response rating, Soybean (soybean (Glycine max); Preemergence, 62 g ai/ha)
40: Plant response rating, Soybean (soybean (Glycine max); Postemergence, 125 g ai/ha)
50: Plant response rating, Velvetleaf ([2]; 16 g ai/ha)
70: Plant response rating, Waterhemp ([3]; Preemergence, 31 g ai/ha) | Plant response rating, Panicum, Fall ([7]; Postemergence, 16 g ai/ha) | Plant response rating, Pigweed, Palmer ([9]; Postemergence, 62 g ai/ha)
75: Plant response rating, Crabgrass, Large ([1]; 62 g ai/ha) | Plant response rating, Waterhemp ([3]; Postemergence, 16 g ai/ha) | Plant response rating, Waterhemp ([3]; Postemergence, 31 g ai/ha) | Plant response rating, Barnyardgrass ([5]; 31 g ai/ha) | Plant response rating, Panicum, Fall ([7]; Preemergence, 16 g ai/ha) | Plant response rating, Horseweed ([8]; 31 g ai/ha)
98: Plant response rating, Waterhemp ([3]; Preemergence, 62 g ai/ha) | Plant response rating, Foxtail, Giant ([4]; 125 g ai/ha) | Plant response rating, Ragweed ([6]; Preemergence, 125 g ai/ha) | Plant response rating, Panicum, Fall ([7]; Preemergence, 31 g ai/ha) | Plant response rating, Panicum, Fall ([7]; Preemergence, 62 g ai/ha) | Plant response rating, Pigweed, Palmer ([9]; Preemergence, 125 g ai/ha)
90: Plant response rating, Velvetleaf ([2]; 62 g ai/ha) | Plant response rating, Waterhemp ([3]; Postemergence, 125 g ai/ha) | Plant response rating, Foxtail, Giant ([4]; 62 g ai/ha) | Plant response rating, Ragweed ([6]; Postemergence, 16 g ai/ha) | Plant response rating, Panicum, Fall ([7]; Postemergence, 31 g ai/ha) | Plant response rating, Panicum, Fall ([7]; Postemergence, 62 g ai/ha) | Plant response rating, Surinam Grass ([10]; 62 g ai/ha)
100: Plant response rating, Velvetleaf ([2]; 125 g ai/ha) | Plant response rating, Waterhemp ([3]; Preemergence, 125 g ai/ha) | Plant response rating, Barnyardgrass ([5]; 125 g ai/ha) | Plant response rating, Panicum, Fall ([7]; Preemergence, 125 g ai/ha) | Plant response rating, Surinam Grass ([10]; 125 g ai/ha)
95: Plant response rating, Waterhemp ([3]; Postemergence, 62 g ai/ha) | Plant response rating, Ragweed ([6]; Postemergence, 62 g ai/ha) | Plant response rating, Ragweed ([6]; Postemergence, 125 g ai/ha) | Plant response rating, Ragweed ([6]; Preemergence, 31 g ai/ha) | Plant response rating, Ragweed ([6]; Preemergence, 62 g ai/ha) | Plant response rating, Panicum, Fall ([7]; Postemergence, 125 g ai/ha) | Plant response rating, Pigweed, Palmer ([9]; Preemergence, 62 g ai/ha)
80: Plant response rating, Crabgrass, Large ([1]; 125 g ai/ha) | Plant response rating, Velvetleaf ([2]; 31 g ai/ha) | Plant response rating, Barnyardgrass ([5]; 62 g ai/ha) | Plant response rating, Horseweed ([8]; 16 g ai/ha) | Plant response rating, Horseweed ([8]; 125 g ai/ha) | Plant response rating, Surinam Grass ([10]; 31 g ai/ha)
35: Plant response rating, Pigweed, Palmer ([9]; Preemergence, 31 g ai/ha) | Plant response rating, Surinam Grass ([10]; 16 g ai/ha)
10: Plant response rating, Corn (corn (Zea mays); Postemergence, 62 g ai/ha) | Plant response rating, Corn (corn (Zea mays); Postemergence, 125 g ai/ha) | Plant response rating, Soybean (soybean (Glycine max); Postemergence, 16 g ai/ha) | Plant response rating, Foxtail, Giant ([4]; 16 g ai/ha)
60: Plant response rating, Waterhemp ([3]; Preemergence, 16 g ai/ha) | Plant response rating, Foxtail, Giant ([4]; 31 g ai/ha) | Plant response rating, Ragweed ([6]; Preemergence, 16 g ai/ha) | Plant response rating, Pigweed, Palmer ([9]; Postemergence, 16 g ai/ha) | Plant response rating, Pigweed, Palmer ([9]; Postemergence, 125 g ai/ha)
5: Plant response rating, Corn (corn (Zea mays); Postemergence, 16 g ai/ha)
85: Plant response rating, Ragweed ([6]; Postemergence, 31 g ai/ha) | Plant response rating, Horseweed ([8]; 62 g ai/ha)
0: Plant response rating, Corn (corn (Zea mays); Preemergence, 16 g ai/ha) | Plant response rating, Corn (corn (Zea mays); Preemergence, 31 g ai/ha) | Plant response rating, Corn (corn (Zea mays); Preemergence, 62 g ai/ha) | Plant response rating, Corn (corn (Zea mays); Preemergence, 125 g ai/ha) | Plant response rating, Soybean (soybean (Glycine max); Preemergence, 16 g ai/ha) | Plant response rating, Soybean (soybean (Glycine max); Preemergence, 125 g ai/ha) | Plant response rating, Barnyardgrass ([5]; 16 g ai/ha)
